What was measured:
[1] = system: T. cruzi Arequipa strain amastigotes; assay: Screening against intracellular amastigotes in Vero cells, Arequipa strain (Giemsa counting); type: cell-based, Trypanosoma cruzi
Protocol: (§1) TINF/CH/1956/Tulahuen, DTU VI [26]—were grown at 28 °C in Gibco® RPMI 1640 Medium supplemented as previously reported, and used for in vitro screening. Trypanocidal activity against amastigotes was tested as previously reported. In brief, bloodstream trypomastigotes (BTs), obtained by cardiac puncture from infected BALB/c mice, were used to infect 1 × 10^4 Vero cells·well^−1 in 24-well plates with rounded coverslips at a multiplicity of infection (MOI) ratio of 10:1. After 24 h of infection, non-internalized trypomastigotes were washed and the infected cells were treated by adding the compounds in serial dilutions from 50 to 0.5 µM in […] for 72 h. BZN and untreated growth controls were also included in triplicate. Later, the number of amastigotes and infected cells were determined in Giemsa stained preparations by analysing 500 host cells randomly distributed in microscopic fields. The trypanocidal activity was expressed as the IC50 using GraphPad Prism 6 software (version 6.07).

[2] = system: T. cruzi Arequipa strain trypomastigotes; assay: Screening against bloodstream trypomastigotes, Arequipa strain (resazurin); type: cell-based, Trypanosoma cruzi; conditions: Trypanosoma cruzi; trypomastigotes; 24 h + 4 h resazurin; mean of three ± SD
[3] = system: T. cruzi SN3 strain amastigotes; assay: Screening against intracellular amastigotes in Vero cells, SN3 strain (Giemsa counting); type: cell-based, Trypanosoma cruzi; conditions: Trypanosoma cruzi; amastigotes in Vero cells; 72 h; mean of three ± SD
Protocol: as §1

[4] = system: T. cruzi Tulahuen strain epimastigotes; assay: Screening against extracellular epimastigotes, Tulahuen strain (resazurin); type: cell-based, Trypanosoma cruzi; conditions: Trypanosoma cruzi, TULAHUEN; epimastigotes; 48 h treatment + 24 h resazurin; mean of three ± SD; read-out: Activity IC50 T. cruzi Tulahuen Strain E
Protocol: Three different T. cruzi […] strains—MHOM/Pe/2011/Arequipa, discrete typing unit (DTU) V [26]; IRHOD/CO/2008/SN3, DTU I [27]; TINF/CH/1956/Tulahuen, DTU VI [26]—were grown at 28 °C in Gibco® RPMI 1640 Medium supplemented as previously reported, and used for in vitro screening.
Trypanocidal activity against epimastigotes was tested as previously reported. In brief, 5 × 10^5 mL^−1 epimastigotes culture medium were treated by adding the compounds in serial dilutions from 100 to 0.2 µM in 96-well plates (200 µL·well^−1) for 48 h. BZN and untreated growth control were also included in triplicate. Later, 20 μL of resazurin sodium salt (Sigma-Aldrich, St. Louis, MO, USA) was added, and the plates were incubated for another 24 h. Finally, the absorbance of the wells was measured at 570/600 nm and related to the control. The trypanocidal activity was expressed as the IC50 (inhibitory concentration 50) value using GraphPad Prism 6 software.

[5] = system: T. cruzi Tulahuen strain amastigotes; assay: Screening against intracellular amastigotes in Vero cells, Tulahuen strain (Giemsa counting); type: cell-based, Trypanosoma cruzi; conditions: Trypanosoma cruzi, TULAHUEN; amastigotes in Vero cells; 72 h; mean of three ± SD
Protocol: as §1

[6] = system: T. cruzi Tulahuen strain trypomastigotes; assay: Screening against bloodstream trypomastigotes, Tulahuen strain (resazurin); type: cell-based, Trypanosoma cruzi; conditions: Trypanosoma cruzi, TULAHUEN; trypomastigotes; 24 h + 4 h resazurin; mean of three ± SD
T. cruzi Arequipa strain [7] = assay: Monitoring of acute parasitaemia by counting in infected BALB/c mice; type: in vivo, Trypanosoma cruzi; conditions: acute infection
Protocol: (§2) All animal work (Scheme 1) and maintenance was performed under RD53/2013 and approved by the Ethics Committee on Animal Experimentation (CEEA) of the University of Granada, Spain. Female BALB/c mice (aged 10–12 weeks and 20–22 g) were used in the subsequent in vivo assays.
(§3) Infection was carried out by intraperitoneal inoculation of 5 × 10^5 BTs of T. cruzi Arequipa strain per mouse in 0.2 mL PBS [26]. The infection was monitored and on the 10th day post-infection (dpi), when BTs were visible in the bloodstream, the infection was confirmed.
(§4) Mice were divided into four groups (n = 3 per group): 0, negative control group (uninfected and untreated mice); I, positive control group (infected and untreated mice); II, BZN group (mice infected and treated with BZN); III, 15 group (mice infected and treated with 15).
(§5) The treatment for mice treated in the acute and chronic CD began when the infection was confirmed (10th dpi) and was stablished that the animals had entered the chronic CD (75th dpi), respectively (Scheme 1). Compound 15 and BZN were orally administered for 5 consecutive days at a dose of 20 mg·Kg^−1·day^−1.
[…]. The fresh blood microscopic examination was performed from the 7th day until the day when parasitaemia was not detected (Scheme 1).

T. cruzi Arequipa strain [8] = assay: Infection reactivation by cyclophosphamide immunosuppression in infected BALB/c mice; type: in vivo, Trypanosoma cruzi; conditions: oral 20 mg/Kg/day for 5 days, related to control group
T. cruzi Arequipa strain [9] = assay: Nested amastigotes detection by PCR in nine target organs/tissues of infected BALB/c mice; type: in vivo, Trypanosoma cruzi; conditions: oral 20 mg/Kg/day for 5 days
Protocol: as §3, §4, §5
After CP-induced immunosuppression, the mice were euthanised using CO2 by exsanguination via cardiac puncture, and blood was collected. Then, 9 target organs/tissues were harvested: adipose, bone marrow, brain, oesophagus, heart, lung, muscle, spleen, and stomach. These organs/tissues were perfused with pre-warmed PBS to avoid contamination with BTs, and stored at −80 °C. In addition, spleens were weighed to assess splenomegaly.
DNA extraction of the target organs/tissues was performed using Wizard® Genomic DNA Purification Kit. DNA was subjected to amplification by PCR based on the sequence of the T. cruzi splice leader (SL) intergenic region using two published primers (TC and TC1) that allow the amplification of a 300 base pairs fragment in different biological samples. […]

[10] = Clinical analysis of heart, kidney and liver markers in serum of treated mice; type: in vivo, BALB/c mice; conditions: n = 3
Protocol: as §3, §4, §5
Blood samples were collected in several dpi (Scheme 1) and processed according the method previously reported to obtain serum. Serum samples were then aliquoted to ELISA test and clinical analysis.
Heart, kidney and liver markers were measured from blood in several dpi (Scheme 1) with Cromakit® as previously reported. Mean and standard deviations were calculated using the levels measured for different populations of sera (n = 15, n = 3), and the confidence interval were also calculated based on a confidence level of 95% (100 × (1 − α) = 100 × (1 − 0.05)).

[11] = system: epimastigotes of T. cruzi Arequipa strain; assay: Mitochondrial membrane potential by flow cytometry (rhodamine 123); type: cell-based, Trypanosoma cruzi; conditions: compounds at IC25 concentrations, 72 h; KCN 10 mM, 40 min; mean of three ± SD
[12] = type: in vivo, BALB/c mice; conditions: oral 20 mg/Kg/day for 5 days; acute and chronic infections
Protocol: as §2, §3, §4, §5

[13] = treatment in the acute infection
[14] = treatment in acute phase, 16th dpi (2 days after treatment)
[15] = treatment in acute phase, necropsy day
[16] = treatment in chronic phase, 81th dpi (2 days after treatment)
[17] = treatment in chronic phase, necropsy day

O=C(Cn1ccnc1[N+](=O)[O-])NCc1ccccc1 [BZN, benznidazole, reference compound]
number of amastigotes per Vero cell ([1]; 50 μM, 72 h of exposure): practically zero
IC50 ([1]; Trypanosoma cruzi, amastigotes in Vero cells, 72 h, mean of three ± SD): 8.3 ± 0.7 µM
IC50 [2]: 12.4 ± 1.1 µM
IC50 [3]: 16.6 ± 1.4 µM
IC50 [4]: 19.7 ± 1.7 µM
IC50 [5]: 10 ± 0.8 µM
IC50 [6]: 15.1 ± 1.3 µM
parasitaemia reduction on the day of maximum parasitaemia (T. cruzi Arequipa strain [7]; oral 20 mg/Kg/day for 5 days from 10th dpi, vs untreated control): ~ 65%
parasitaemia undetectable, days before control mice (T. cruzi Arequipa strain [7]; oral 20 mg/Kg/day for 5 days, control detectable up to 50 dpi): 3 days
reactivation of parasitaemia after immunosuppression (T. cruzi Arequipa strain [8]; [13]): 75%
reactivation of parasitaemia after immunosuppression (T. cruzi Arequipa strain [8]; treatment in the chronic infection (from 75th dpi)): 51%
clearance of nested parasites in target organs/tissues (parasite-free organs/tissues, PCR) (T. cruzi Arequipa strain [9]; [13]): 33%
clearance of nested parasites in target organs/tissues (parasite-free organs/tissues, PCR) (T. cruzi Arequipa strain [9]; treatment in the chronic infection): 56%
ALP, variation over the range [10, 14]: ++ (20-30% increase/decrease over the range)
ALT/GPT, variation over the range [10, 14]: ++++ (˃ 40% increase/decrease over the range)
AST/GOT, variation over the range [10, 14]: ++++ (˃ 40% increase/decrease over the range)
CK-MB, variation over the range [10, 14]: = (variation ≤ 10%)
LDH, variation over the range [10, 14]: = (variation ≤ 10%)
Total bilirubin, variation over the range [10, 14]: ++ (20-30% increase/decrease over the range)
Urea, variation over the range [10, 14]: --- (30-40% increase/decrease over the range)
Uric acid, variation over the range [10, 14]: ---- (˃ 40% increase/decrease over the range)
ALP, variation over the range [10, 15]: = (variation ≤ 10%)
ALT/GPT, variation over the range [10, 15]: = (variation ≤ 10%)
AST/GOT, variation over the range [10, 15]: ++++ (˃ 40% increase/decrease over the range)
CK-MB, variation over the range [10, 15]: = (variation ≤ 10%)
LDH, variation over the range [10, 15]: = (variation ≤ 10%)
Total bilirubin, variation over the range [10, 15]: + (10-20% increase/decrease over the range)
Urea, variation over the range [10, 15]: --- (30-40% increase/decrease over the range)
Uric acid, variation over the range [10, 15]: = (variation ≤ 10%)
ALP, variation over the range [10, 16]: ++++ (˃ 40% increase/decrease over the range)
ALT/GPT, variation over the range [10, 16]: ++ (20-30% increase/decrease over the range)
AST/GOT, variation over the range [10, 16]: ++ (20-30% increase/decrease over the range)
CK-MB, variation over the range [10, 16]: -- (20-30% increase/decrease over the range)
LDH, variation over the range [10, 16]: --- (30-40% increase/decrease over the range)
Total bilirubin, variation over the range [10, 16]: +++ (30-40% increase/decrease over the range)
Urea, variation over the range [10, 16]: --- (30-40% increase/decrease over the range)
Uric acid, variation over the range [10, 16]: ---- (˃ 40% increase/decrease over the range)
ALP, variation over the range [10, 17]: ++ (20-30% increase/decrease over the range)
ALT/GPT, variation over the range [10, 17]: = (variation ≤ 10%)
AST/GOT, variation over the range [10, 17]: + (10-20% increase/decrease over the range)
CK-MB, variation over the range [10, 17]: = (variation ≤ 10%)
LDH, variation over the range [10, 17]: -- (20-30% increase/decrease over the range)
Total bilirubin, variation over the range [10, 17]: ++ (20-30% increase/decrease over the range)
Urea, variation over the range [10, 17]: --- (30-40% increase/decrease over the range)
Uric acid, variation over the range [10, 17]: -- (20-30% increase/decrease over the range)
Inhibition on mitochondrial membrane potential with respect to untreated epimastigotes [11]: 35.4%
death or body mass loss of treated mice [12]: none of the mice died or lost more than 10% body mass

From PMC9863987, “Identification of Aryl Polyamines Derivatives as Anti-Trypanosoma cruzi Agents Targeting Iron Superoxide Dismutase” (Pharmaceutics, 2022)
